# Measurements as given in paper PMC8113459, “Selective inhibition of cullin 3 neddylation through covalent targeting DCN1 protects mice from acetaminophen-induced liver toxicity” (Nature Communications, 2021).
# Several values for one entry are separate records, joined by “and”; a condition that tells them apart may be missing. Equal entries are not always repeated.
# How the values were obtained:
# DCN1 [1] = molecular target: T1, DCN1 (Homo sapiens, UniProt Q96GG9); test: High-resolution LC-tandem mass spectrometry of tryptic peptides; conditions: for Modifications (DI-548 adduct on DCN1 tryptic peptide): B2 Sequest HT (DI-548) sample, confidence High, not found in Apo sample
# Experimental: Equal amounts of proteins (10 μg) were denatured in 8 M urea. Cysteines were reduced with 10 mM DTT at 45 °C for 30 min and alkylated using 50 mM chloroacetamide (RT, 30 min). Upon dilution of urea to <1.2 M, digestion with 250 ng of sequencing grade, modified trypsin (Promega) was carried out overnight at 37 °C. Reaction was terminated by acidification with trifluoroacetic acid (0.1% v/v) and peptides were purified using SepPak C18 cartridge following the manufacturer’s protocol (Waters Corp). An aliquot of the resulting peptides (~2 µg) was resolved on a nanocapillary reverse phase column (Acclaim PepMap C18, 2 μm, 50 cm, Thermo Fisher Scientific) using 0.1% formic acid/acetonitrile gradient at 300 nL/min and directly introduced in to Q Exactive HF mass spectrometer (Thermo Fisher Scientific, San Jose, CA). MS1 scans were acquired at 60 K resolution (AGC target = 3e^6, max IT = 50 ms). Data-dependent high-energy C-trap dissociation MS/MS spectra were acquired for the 20 most abundant ions (Top20) following each MS1 scan (15 K resolution; AGC target = 1e^5; relative CE ~ 28%). Proteins were identified by searching the data against restricted database containing DCN1 protein sequence and common contaminants using Sequest HT (Proteome Discoverer v2.4, Thermo Fisher Scientific). Search parameters included MS1 mass tolerance of 10 ppm and fragment tolerance of 0.02 Da; two missed cleavages were allowed; carbamidomethylation (+57.02146 Da) and DI-1548 adduct (+510.2665 Da) of cysteine, and oxidation of methionine, deamidation of asparagine and glutamine were considered as potential modifications. False discovery rate (FDR) was determined using target decoy validator and proteins/peptides with an FDR of ≤1% were retained for further analysis. The DI-1548 modified peptide PSMs were manually verified.
# Target sequence in this assay (Q96GG9 58-259 limits assumed): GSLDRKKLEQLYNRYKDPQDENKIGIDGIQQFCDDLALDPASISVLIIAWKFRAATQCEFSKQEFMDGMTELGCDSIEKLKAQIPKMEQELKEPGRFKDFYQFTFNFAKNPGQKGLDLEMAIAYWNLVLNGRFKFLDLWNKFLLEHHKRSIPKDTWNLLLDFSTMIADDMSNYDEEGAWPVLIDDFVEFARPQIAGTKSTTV
# [2] = molecular target: T2, cellular DCN3 protein in U2OS cells (Homo sapiens, UniProt Q8IWE4); test: Cellular thermal shift assay (CETSA), DCN3; type: cell-based; conditions: concentrations up to 1000 nM
# T2 construct: endogenous in cells; host or cells: U2OS
# Experimental: CETSA was performed as previously described. The U2OS cells (5 × 10^5 per sample) were treated with compounds or with DMSO for 1 h, washed with PBS for three times, and dissolved in 50 µL PBS supplemented with protease inhibitor, followed by heating at 53 °C in a Mastercycler gradient (Eppendorf, New York, USA). Treated cells were then subjected to snap-freezing in liquid nitrogen and thawed on ice for three cycles. The protein level of DCN1 and DCN3 in equal amount of the supernatant was examined by western blot methods. GAPDH was used as a control. Results are representative of three independent experiments.
# DCN1 [3] = molecular target: T1, DCN1; test: BLI assay; type: binding; set-up: biotin (chemical labelling, EZ-Link long-chain reagent)
# Experimental: BLI experiments were performed using an OctetRED96 instrument from PALL/ForteBio, as previously described. All assays were run at 30 °C using PBS (pH 7.4) as the assay buffer, in which 0.1% BSA, 0.01% Tween-20, and 2% DMSO were added. DCN1 protein was biotinylated using the Thermo EZ-Link long-chain biotinylation reagent. Biotinylated DCN1 protein was tethered on super streptavidin biosensors (ForteBio) by dipping sensors into 10 µg/mL protein solutions. To eliminate loose nonspecific bound protein and establish a stable base line, sensors with proteins were moved and dipped into wells with pure assay buffer and equilibrated in the buffer for 10 min. Association–dissociation cycles were performed by moving and dipping sensors into compound solution wells then into pure buffer wells. DMSO-only reference was included in all assays.
# Target sequence in this assay (Q96GG9 whole entry): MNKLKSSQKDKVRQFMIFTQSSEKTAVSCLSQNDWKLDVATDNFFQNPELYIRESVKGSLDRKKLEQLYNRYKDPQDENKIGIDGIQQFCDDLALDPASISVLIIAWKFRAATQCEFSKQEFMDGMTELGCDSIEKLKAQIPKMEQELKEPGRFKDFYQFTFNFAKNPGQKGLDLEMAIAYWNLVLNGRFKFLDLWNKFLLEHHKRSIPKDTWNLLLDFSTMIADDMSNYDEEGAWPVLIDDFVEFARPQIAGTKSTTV
# HCT116 cells = test: Cell viability assay (WST-8), HCT116; type: cell-based, human; conditions: Homo sapiens, HCT-116; 72 h; cell line assigned from panel order; read-out: EC50, cell growth inhibition
# In short: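 Cells (2000–3000 per well) were treated with serial dilutions of DCN1 inhibitors for 3 days, then incubated 1–3 h with WST-8 and absorbance read at 450 nm. Growth inhibition was sample-to-control absorbance ratio, with EC50 from fitted curves.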
# NQO1 mRNA = test: RT-PCR, NQO1 mRNA in THLE2 cells; type: cell-based, human; conditions: for NQO1 mRNA level relative to control: THLE2, 10 nM, replicates
# Experimental: (§1) Supplementary Figure 23. DI‐1859 increases the mRNA level of NRF2 ta rge te d genes NQO1 and
# (§2) HO‐1. THLE2 cells we re treated with DI‐1859 at 10 nM fo r 4, 8 and 24 h. Tr e a t e d cells were
# (§3) harvested and the mRNA level of HO‐1 and NQO1 we re exa m i n e d by RT‐PCR assay. The probes
# (§4) Scientific (Ann Arbor, MI). Data are presented as mean values with n = 2 independent biological […]
# HO-1 mRNA = test: RT-PCR, HO-1 mRNA in THLE2 cells; type: cell-based, human; conditions: for HO-1 mRNA level relative to control: THLE2, 10 nM, replicates
# Experimental: as §1, §2, §3, §4
# [4] = 4 h (time from row order and b199)
# [5] = 8 h (time from row order and b199)
# [6] = 24 h (time from row order and b199)
# T2 sequence (Q8IWE4 whole entry): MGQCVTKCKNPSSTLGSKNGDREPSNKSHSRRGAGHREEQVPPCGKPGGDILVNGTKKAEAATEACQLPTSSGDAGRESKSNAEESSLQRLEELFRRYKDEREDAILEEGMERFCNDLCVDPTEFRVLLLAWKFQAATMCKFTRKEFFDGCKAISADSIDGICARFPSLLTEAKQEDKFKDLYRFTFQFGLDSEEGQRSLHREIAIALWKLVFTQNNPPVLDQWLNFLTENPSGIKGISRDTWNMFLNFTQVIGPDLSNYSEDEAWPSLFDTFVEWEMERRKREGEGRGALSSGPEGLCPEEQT
"Modifications (DI-548 adduct on DCN1 tryptic peptide) (DCN1 [1]; peptide [R].AATQCEFSK.[Q], DCN_1 [77-85])",residue of DCN1 modified (DCN1 [1]; tryptic digested peptides),effect on the thermal stability of cellular DCN3 protein [2],dissociation phase of the complex with DCN1 (DCN1 [3]),concentration at which the BLI signal reaches near its maximum (DCN1 [3]; 1.56 to 100 nM tested) [nM],EC50 (HCT116 cells) [nM],Structure (SMILES),"Modifications (DI-548 adduct on DCN1 tryptic peptide) (DCN1 [1]; peptide [R].AATQCEFSKQEFMDGMTELGCDSIEK.[L], DCN_1 [77-102], 1xCarbamidomethyl [C21] and 1xDeamidated [Q4])","Modifications (DI-548 adduct on DCN1 tryptic peptide) (DCN1 [1]; peptide [R].AATQCEFSKQEFMDGMTELGCDSIEK.[L], DCN_1 [77-102], 1xCarbamidomethyl [C21])",NQO1 mRNA level relative to control (NQO1 mRNA; [4]),NQO1 mRNA level relative to control (NQO1 mRNA; [5]),NQO1 mRNA level relative to control (NQO1 mRNA; [6]),"increase of NQO1 mRNA level (NQO1 mRNA; THLE2 liver cells, qRT-PCR) [folds]",HO-1 mRNA level relative to control (HO-1 mRNA; [4]),HO-1 mRNA level relative to control (HO-1 mRNA; [5]),HO-1 mRNA level relative to control (HO-1 mRNA; [6]),"increase of HO1 mRNA level (HO-1 mRNA; THLE2 liver cells, qRT-PCR) [folds]"
1xDI-548_Haibin [C5],forms covalent bond with Cys115,no discernible effect,no dissociation phase,25,> 1000,C=C(CN1CCOCC1)C(=O)NC[C@@H](NC(=O)[C@H](Cc1nc2ccc(C(C)C)cc2s1)NC(=O)CC)C1CCCCC1 [DI-1548],1xCarbamidomethyl [C21]; 1xDeamidated [Q4]; 1xDI-548_Haibin [C5],1xCarbamidomethyl [C21]; 1xDI-548_Haibin [C5],,,,,,,,
,,,,,,C=C(CN(C)C)C(=O)NC[C@@H](NC(=O)[C@H](Cc1nc2ccc(C(C)C)cc2s1)NC(=O)CC)C1CCCCC1 [DI-1859],,,2.3 and 2,2.7 and 2.6,19.3 and 16,17,1.5 and 1.6,1.7 and 1.9,2.4 and 3.9,3
